Source: PMC3459870, “Hit-to-Lead Development of the Chamigrane Endoperoxide Merulin A for the Treatment of African Sleeping Sickness” (PLoS ONE, 2012)
Like-named read-outs stand apart in the source and are kept apart here.

Columns and labels:
[1] = test system: Trypanosoma brucei brucei strain 427–221; test: Trypanosome screening assay (CellTiter-Glo ATP bioluminescence, 48 h); format: cell-based; conditions: for IC50: Trypanosoma brucei
Description: Trypanosoma brucei brucei strain 427–221 were grown at 37°C, 5% CO2 in HMI-9 medium containing 10% Fetal Bovine Serum, 10% Serum Plus (JRH Inc., Lenexa, KS,USA) and penicillin/streptomycin.
T.b.b. 427–221 were diluted to 2.10^4 per ml in complete HMI-9 medium and aliquoted in Greiner sterile 384-well flat white opaque culture plates using a WellMate cell dispenser from Matrix Tech. (Hudson, NH, USA). Test compounds were serially diluted in dimethyl sulfoxide (DMSO) and added to the assay plates with the robotic dispenser Biomek FXp liquid handler (Beckman Coulter). Thimerosal (2 µM final concentration) was added as a positive control and DMSO as a negative control (1% final concentration). Trypanosomes were incubated with compounds for 48 hours at 37°C with 5% CO2 before monitoring cell viability as previously described. Briefly, trypanosomes were lysed in the wells by adding 25 µL of CellTiter-GloTM (Promega). The lysed trypanosomes were placed on an orbital shaker at room temperature for 2 minutes. After lysis, the resulting ATP-bioluminescence was measured at room temperature using an Analyst HT plate reader (Molecular Devices). Percentage inhibition of parasite growth was calculated for each well as [1−(RLUx−RLU+)/(RLU−−RLU+)]*100 where RLUx, RLU+ and RLU− are respectively the Relative Light Units for each well, positive (thimerosal) and negative (DMSO) controls. A screening window coefficient, denoted Z′ factor, was used to evaluate the performance of the assay. The Z′ factor, calculated as 1−(3σc++3σc−)/(μc+−μc−) where σc+, σc−, μc+ and μc− are respectively the standard deviation and mean values of positive and negative controls, is reflective of the assay signal dynamic range and the data variation associated with signal measurement. IC50's were calculated using Prism (GraphPad).

[2] = test system: HeLa cells; test: HeLa toxicity screening assay (nuclei count by imaging, 17 h); format: cell-based, human; conditions: Homo sapiens, HeLa; Figure 4
Description: (§1) HeLa cells were plated at a density of 2,000 cells per well into two 384 well clear bottom plates (Costar 3712) in DMEM with 10% FBS. After 24 hours incubation at 37°C with 5% CO2 the cells were pinned with 200 nL of a two-fold serial dilution of merulin analogues. After 17 hours of treatment at 37°C in 5% CO2 the plates were fixed with 4% formaldehyde and washed with PBS (BioTek ELx405). After 10 minutes in PBS with 0.5% TritonX-100 each plate was washed and blocked with 2% Bovine Serum Albumin in PBS. Nuclei were stained with Hoechst 33342 then washed and placed in 40 µL of PBS with 0.1% sodium azide. Plates were imaged using the ImageXpress Micro epifluorescent scope (Molecular Devices). MetaXpress software was used to quantify total number of cells and IC50s were calculated using Prism (GraphPad).

[3] = test system: T98-G cells; test: Glioblastoma toxicity screening assay (nuclei count by imaging, 17 h); format: cell-based; conditions: Homo sapiens, T98G; Figure 4
Description: as §1, with “T98-G cells (ATTC” for “HeLa cells were”, “T98-G cells (ATTC number: CRL-1690) were plated” for “HeLa cells were plated”

[4] = text and Figures 1, 3, bloodstream form, read-out: IC50 against T. brucei brucei
[5] = Figure 4, bloodstream form, read-out: T.b.b IC50

Compound | IC50 [1, 5] | IC50 [2] | IC50 [3] | further results
NCCCC(N)(C(=O)O)C(F)F (stereo not shown) [Eflornithine, reference compound] |  |  |  | IC50 ([1]; Table 3, read-out: T.b.b IC50): 59000 nM
CC1(C)CCC(=O)C2(C)OOC3CC12CCC3(O)CO (stereo not shown) [Merulin B (6), Merulin B] |  |  |  | IC50 ([1]; Table 3, read-out: T.b.b IC50): 8000 nM
CC1(C)C=CC(=O)[C@@]2(C)OO[C@@H]3C[C@]12CCC3(O)CO (stereo partly shown) [Merulin C (7), Merulin C] |  |  |  | IC50 ([1]; Table 3, read-out: T.b.b IC50): 800 nM
N=C(N)c1ccc(OCCCCCOc2ccc(C(=N)N)cc2)cc1 [Pentamidine, reference compound] |  |  |  | IC50 ([1]; Table 3, read-out: T.b.b IC50): 30 nM
Cc1ccc(C(=O)Nc2ccc(S(=O)(=O)O)c3cc(S(=O)(=O)O)cc(S(=O)(=O)O)c23)cc1NC(=O)c1cccc(NC(=O)Nc2cccc(C(=O)Nc3cc(C(=O)Nc4ccc(S(=O)(=O)O)c5cc(S(=O)(=O)O)cc(S(=O)(=O)O)c45)ccc3C)c2)c1 [Suramin, reference compound] |  |  |  | IC50 ([1]; Table 3, read-out: T.b.b IC50): 7 nM
CC1(C)CC[C@@H](O)[C@@]2(C)OO[C@H]3C[C@@]12CC[C@H]3O [compound 8, (3S,4R,6aS,10R,10aS)-7,7,10a-trimethyloctahydro-3H-3,6a-methanobenzo[c][1,2]dioxocine-4,10-diol] |  |  |  | IC50 [1, 4]: > 50000 nM
CC1(C)CCC(=O)[C@@](C)(O)[C@]12CC[C@@H](O)[C@@H](O)C2 [compound 9, (1S,6S,8S,9R)-1,8,9-trihydroxy-1,5,5-trimethylspiro[5.5]undecan-2-one] |  |  |  | IC50 [1, 4]: > 50000 nM; activity against T. brucei brucei in words ([1]; initial SAR series): complete loss of activity
CC(=O)O[C@@H]1CC[C@@]23C[C@@H]1OO[C@]2(C)C(=O)CCC3(C)C [compound 10, (3S,4R,6aS,10aS)-7,7,10a-trimethyl-10-oxooctahydro-3H-3,6a-methanobenzo[c][1,2]dioxocin-4-yl acetate] |  |  |  | IC50 [1, 4]: 14000 nM
CC(C)(C)C(=O)O[C@@H]1CC[C@@]23C[C@@H]1OO[C@]2(C)C(=O)CCC3(C)C [compound 11, (3S,4R,6aS,10aS)-7,7,10a-trimethyl-10-oxooctahydro-3H-3,6a-methanobenzo[c][1,2]dioxocin-4-yl pivalate] |  |  |  | IC50 [1, 4]: 8000 nM
CC1(C)CCC(=O)[C@@]2(C)OO[C@H]3C[C@@]12CC[C@H]3OC(=O)C1COc2ccccc2O1 (stereo partly drawn) [compound 12, (3S,4R,6aS,10aS)-7,7,10a-trimethyl-10-oxooctahydro-3H-3,6a-methanobenzo[c][1,2]dioxocin-4-yl 2,3-dihydrobenzo[b][1,4]dioxine-2-carboxylate] |  | > 50 µM | > 50 µM | IC50 ([1]; Table 3, read-out: T.b.b IC50): 60 nM
CC1(C)CCC(=O)[C@@]2(C)OO[C@H]3C[C@@]12CC[C@H]3OC(=O)Cc1cccc2ccccc12 [compound 17, (3S,4R,6aS,10aS)-7,7,10a-trimethyl-10-oxooctahydro-3H-3,6a-methanobenzo[c][1,2]dioxocin-4-yl 2-(naphthalen-1-yl)acetate] |  | 13 µM | > 50 µM | IC50 ([1]; bloodstream form, read-out: IC50 against T. brucei): 43 nM

The next lines start with results.

IC50 [1, 5] | Compound | IC50 [2] | IC50 [3] | further results
260 nM | CC1(C)CCC(=O)[C@@]2(C)OO[C@H]3C[C@@]12CC[C@H]3OC(=O)c1ccc2c(c1)OCCO2 [compound 13, (3S,4R,6aS,10aS)-7,7,10a-trimethyl-10-oxooctahydro-3H-3,6a-methanobenzo[c][1,2]dioxocin-4-yl 2,3-dihydrobenzo[b][1,4]dioxine-6-carboxylate] | 28 µM | > 50 µM | 
420 nM | CC1(C)CCC(=O)[C@@]2(C)OO[C@H]3C[C@@]12CC[C@H]3OC(=O)c1cc2ccccc2oc1=O [compound 14, (3S,4R,6aS,10aS)-7,7,10a-trimethyl-10-oxooctahydro-3H-3,6a-methanobenzo[c][1,2]dioxocin-4-yl 2-oxo-2H-chromene-3-carboxylate] | > 50 µM | > 50 µM | 
240 nM | CC1(C)CCC(=O)[C@@]2(C)OO[C@H]3C[C@@]12CC[C@H]3OC(=O)c1cccc(-c2ccccc2)c1 [compound 15, (3S,4R,6aS,10aS)-7,7,10a-trimethyl-10-oxooctahydro-3H-3,6a-methanobenzo[c][1,2]dioxocin-4-yl [1,1′-biphenyl]-3-carboxylate] | > 50 µM | > 50 µM | 
110 nM | CC1(C)CCC(=O)[C@@]2(C)OO[C@H]3C[C@@]12CC[C@H]3OC(=O)c1ccc(C2CCCCC2)cc1 [compound 16, (3S,4R,6aS,10aS)-7,7,10a-trimethyl-10-oxooctahydro-3H-3,6a-methanobenzo[c][1,2]dioxocin-4-yl 4-cyclohexylbenzoate] | 13 µM | > 50 µM | 
700 nM | Cc1ncc(C(=O)O[C@@H]2CC[C@@]34C[C@@H]2OO[C@]3(C)C(=O)CCC4(C)C)s1 [compound 18, (3S,4R,6aS,10aS)-7,7,10a-trimethyl-10-oxooctahydro-3H-3,6a-methanobenzo[c][1,2]dioxocin-4-yl 2-methylthiazole-5-carboxylate] | > 50 µM | > 50 µM | 
660 nM | CC1(C)CCC(=O)[C@@]2(C)OO[C@H]3C[C@@]12CC[C@H]3OC(=O)c1cnc(Br)s1 [compound 19, (3S,4R,6aS,10aS)-7,7,10a-trimethyl-10-oxooctahydro-3H-3,6a-methanobenzo[c][1,2]dioxocin-4-yl 2-bromothiazole-5-carboxylate] | 13 µM | > 50 µM | 
330 nM | CC1(C)CCC(=O)[C@@]2(C)OO[C@H]3C[C@@]12CC[C@H]3OC(=O)c1ccsc1 [compound 20, (3S,4R,6aS,10aS)-7,7,10a-trimethyl-10-oxooctahydro-3H-3,6a-methanobenzo[c][1,2]dioxocin-4-yl thiophene-3-carboxylate] | 16 µM | > 50 µM | 
540 nM | CC1(C)CCC(=O)[C@@]2(C)OO[C@H]3C[C@@]12CC[C@H]3OC(=O)c1cc(Cl)sc1Cl [compound 21, (3S,4R,6aS,10aS)-7,7,10a-trimethyl-10-oxooctahydro-3H-3,6a-methanobenzo[c][1,2]dioxocin-4-yl 2,5-dichlorothiophene-3-carboxylate] | 21 µM | > 50 µM | 
190 nM | CC1(C)CCC(=O)[C@@]2(C)OO[C@H]3C[C@@]12CC[C@H]3OC(=O)c1cc(-c2ccccc2)no1 [compound 22, (3S,4R,6aS,10aS)-7,7,10a-trimethyl-10-oxooctahydro-3H-3,6a-methanobenzo[c][1,2]dioxocin-4-yl 3-phenylisoxazole-5-carboxylate] | > 50 µM | 20 µM | 
1800 nM | CC1(C)CCC(=O)[C@@]2(C)OO[C@H]3C[C@@]12CC[C@H]3OC(=O)c1ccno1 [compound 23, (3S,4R,6aS,10aS)-7,7,10a-trimethyl-10-oxooctahydro-3H-3,6a-methanobenzo[c][1,2]dioxocin-4-yl isoxazole-5-carboxylate] | > 50 µM | > 50 µM | 
270 nM | CC1(C)CCC(=O)[C@@]2(C)OO[C@H]3C[C@@]12CC[C@H]3OC(=O)c1ccc(N2CCOCC2)cc1 [compound 24, (3S,4R,6aS,10aS)-7,7,10a-trimethyl-10-oxooctahydro-3H-3,6a-methanobenzo[c][1,2]dioxocin-4-yl 4-morpholinobenzoate] | 12 µM | > 50 µM | 
950 nM | CC1(C)CCC(=O)[C@@]2(C)OO[C@H]3C[C@@]12CC[C@H]3OC(=O)c1ccncc1 [compound 25, (3S,4R,6aS,10aS)-7,7,10a-trimethyl-10-oxooctahydro-3H-3,6a-methanobenzo[c][1,2]dioxocin-4-yl isonicotinate] | > 50 µM | > 50 µM | 
